Data from US20040047885A1, “Use of compounds which make it possible to modify the physicochemical properties of the skin and/or the mucous membranes as agents preventing or reducing the adhesion of microorganisms to the latter” (priority 2000, published 2004).
Where two headings read alike, the source gives them in different places.

Test system: Staphylococcus aureus
Type: cell-based
Conditions: vs water
Procedure: These compounds are chosen so that the decimal logarithm of the mean number of viable bacteria adhering to reconstructed epidermis, after a test consisting in bringing the said epidermis into contact with the test compound for 2 hours at 37° C., is at least 0.3 less than that obtained by a test carried out with water under the same conditions.
The reconstructed epidermis used in the test indicated above is reconstructed human epidermis, equivalent to human skin, sold by EPISKIN.
The antiadhesion test corresponds to the protocol below:
Before bacterial adhesion, the reconstructed epidermis is brought into contact for 2 hours with 25 mg of the product to be tested at 37° C. 1 ml of bacterial suspension of Staphylococcus aureus at a concentration of […] in Tryptone salt is then added thereto. After incubating for 24 hours at 37° C., the bacterial suspension is emptied and five rinsings are carried out with 1 ml of sterile distilled water. The epidermis, detached from its support, is then ground with the aid of a food processor in 18 ml of Tryptone salt. A decimal dilution is carried out on this suspension in Tryptone salt, and 1 ml of the dilution is then inoculated into 15 ml of Trypticase Soy agar and the medium is incubated for 24 hours at 37° C. The adherent and viable cells are then counted.
This antiadhesion test makes it possible to evaluate the efficacy of molecules alone or of finished products.
The figures presented opposite the compound correspond to the reduction of the decimal logarithm of the mean number of viable Staphylococcus aureus adhering to reconstructed epidermis after treatment with the compound under the conditions defined by the preceding test compared with the decimal logarithm of the mean number of viable Staphylococcus aureus adhering to reconstructed epidermis after treatment with water under the same conditions.

[1] = reconstructed human epidermis (EPISKIN) contacted 2 hours at 37° C. with 25 mg product, then 24 hours with bacterial suspension

Row | Compound | reduction of the decimal logarithm of the mean number of viable Staphylococcus aureus adhering to reconstructed epidermis compared with water [1] | reduction of the decimal logarithm of the mean number of viable Staphylococcus aureus adhering to reconstructed epidermis compared with water (tested at 5% active substance, epidermis contacted 2 hours at 37° C.)
1 | CCCCCCCCOC(=O)CCCCC(=O)OCCCCCCCC [Dioctyl adipate] | 0.90 | –
2 | Tartrate of branched C12-C13 dialcohols | 2.31 | –
3 | Disodium cocoamphodiacetate | 1.34 | –
4 | Ricinoleic monoethanolamide monosulphosuccinate salt | – | 3.84
